Measured values as given in patent publication US8722713B2, “Synergistic antimicrobial composition of 1,2-benzisothiazolin-3-one and tris(hydroxymethyl)nitromethane” (Dow Global Technologies LLC, priority 2010, dated 2014).

Legend:
[1] = test system: oil field isolated anaerobic consortium, mainly SRB; assay: Biocidal efficacy (MBC) against anaerobic bacteria in contaminated salt solution; type: cell-based; details: 40° C., 24 hour, 10^6 to 10^7 CFU/mL
Method: Inside an anaerobic chamber (Bactron anaerobic chamber), a deaerated sterile salt solution (3.1183 g of NaCl, 1.3082 mg of NaHCO3, 47.70 mg of KCl, 72.00 mg of CaCl2, 54.49 mg of MgSO4, 172.28 mg of Na2SO4, 43.92 mg of Na2CO3 in 1 L water) was contaminated with an oil field isolated anaerobic consortium, mainly SRB, at final bacterial concentrations of 10^6 to 10^7 CFU/mL. The aliquots of this contaminated water were then treated with BIT, Tris Nitro, or the BIT/Tris Nitro combinations at different active concentration levels. After the mixtures were incubated at 40° C. for 24 hour, the biocidal efficacy was determined by minimum tested biocide concentration for bacteria kill in the aliquots (MBC). Table 1 summarizes the efficacy of each biocide and their blends, and the Synergy Index* of each combination.

[2] = test system: Psedomonas aeruginosa ATCC 10145 and Staphylococcus aureus ATCC 6538; assay: Biocidal efficacy (MBC, complete kill) against aerobic bacteria in contaminated NaCl solution; type: cell-based; details: 37° C., 24 hour, ~10^6 CFU/ml
Method: A sterile NaCl solution (0.85%) was contaminated with Psedomonas aeruginosa ATCC 10145 and Staphylococcus aureus ATCC 6538 at final bacterial concentration of ˜10^6 CFU/ml. The aliquots of this contaminated water were then treated with BIT, Tris Nitro, or the BIT/Tris Nitro combination at different active concentration levels. […] Table 2 summarizes the efficacy of each biocide and their blends, and the Synergy Index of each combination.

SMILES | MBC (active ppm) BIT ([1]; concentration of BIT at minimum tested biocide concentration for bacteria kill) [active ppm] | Dosage required for complete kill (active ppm) BIT ([2]; concentration of BIT at MBC) [active ppm] | MBC (active ppm) Tris Nitro ([1]; concentration of Tris Nitro at minimum tested biocide concentration for bacteria kill) [active ppm] | Dosage required for complete kill (active ppm) Tris Nitro ([2]; concentration of Tris Nitro at MBC) [active ppm]
O=c1[nH]sc2ccccc12 [1:0, 1,2-benzisothiazolin-3-one] | 17.3 | >25 | – | –
O=[N+]([O-])C(CO)(CO)CO [0:1, tris(hydroxymethyl)nitromethane] | – | – | >100 | 25.7
